According to US20120245044A1, “METHODS OF DETERMINING CHEMOTHERAPY RESPONSE IN CANCER” (TRANSLATIONAL GENOMICS RESEARCH INSTITUTE, priority 2011, published 2012):

Tests used:
Format in all cases: cell-based
[1] = test system: H69-GLI1 versus H69-wt SCLC cells; assay: Drug dose response, cell viability after 72 hours, GLI1 over-expressing vs parental line
Procedure: (§1) (A) Drug-dose response experiment in H69-GLI1 and H69-GLI2 versus H69-wt for cisplatin. […] (C) Drug-dose response experiment in H69-GLI1 versus H69-wt for cisplatin. Methods. Two SCLC cell lines, H69 and H526, were transduced with a GLI1 over-expressing (o/e) vector (Kasper et al, 2007) to create two lines expressing the gene: H69-GLI1 and H526-GLI1. GLI1 expression was verified by qRT-PCR. Cellular proliferation was measured over a 96-hour period. To study the drug dose response, GLI1 o/e and parental lines were treated with single-agent or combination dosing of cisplatin and etoposide, and cell viability was assessed after 72 hours. Relative GLI1 expression was compared with cisplatin response in four additional SCLC cell lines (H146, […], […]). Gene expression analysis was performed on H69-GLI1 and H69 parental cells, with two replicates for each, using Agilent (Agilent Technologies, Santa Clara, Calif.) 44K expression arrays. Data was normalized and analyzed using Genespring software (Agilent Technologies, Santa Clara, Calif.).

[2] = test system: H69-GLI2 versus H69-wt SCLC cells; assay: Drug dose response, cell viability after 72 hours; conditions: single agent, experiment H69-GLI1 and H69-GLI2 versus H69-wt (FIG. 1A/1B)
Procedure: as §1

[3] = test system: H526-GLI1 versus H526-wt SCLC cells; assay: Drug dose response, cell viability after 72 hours, GLI1 over-expressing vs parental line; conditions: H526-GLI1 compared to H526-wt
Procedure: Methods. Two SCLC cell lines, H69 and H526, were transduced with a GLI1 over-expressing (o/e) vector (Kasper et al, 2007) to create two lines expressing the gene: H69-GLI1 and H526-GLI1. GLI1 expression was verified by qRT-PCR. Cellular proliferation was measured over a 96-hour period. To study the drug dose response, GLI1 o/e and parental lines were treated with single-agent or combination dosing of cisplatin and etoposide, and cell viability was assessed after 72 hours. Relative GLI1 expression was compared with cisplatin response in four additional SCLC cell lines (H146, […], […]). Gene expression analysis was performed on H69-GLI1 and H69 parental cells, with two replicates for each, using Agilent (Agilent Technologies, Santa Clara, Calif.) 44K expression arrays. Data was normalized and analyzed using Genespring software (Agilent Technologies, Santa Clara, Calif.).

[4] = single agent, experiment H69-GLI1 and H69-GLI2 versus H69-wt (FIG. 1A/1B), viability after 72 hours

SMILES	shift in cisplatin resistance ([1]; H69-GLI1 compared to H69-wt, drug dose response, FIG. 1)	fold change between H69-GLI1 and H69-wt in drug-dose response ([1]; experiment H69-GLI1 versus H69-wt only (FIG. 1C))	fold change between H69-GLI1 and H69-wt in drug-dose response [1, 4]	fold change between H69-GLI2 and H69-wt in drug-dose response [2]	change in cisplatin resistance [3]
N.N.[Cl][Pt][Cl] [cisplatin, cis-diamminedichloroplatinum(II)]	≥ 1.5 fold	2.77 fold	1.76 fold	1.21 fold	no significant change
COc1cc([C@@H]2c3cc4c(cc3[C@@H](O[C@@H]3O[C@@H]5CO[C@@H](C)O[C@H]5[C@H](O)[C@H]3O)[C@H]3COC(=O)[C@H]23)OCO4)cc(OC)c1O [etoposide]			4.55 fold	1.76 fold	
